Measured values as given in PubChem BioAssay (NCI).
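All cell lines were grown in 96-well plates and treated with compound for 48 hours. GI50 = concentration required for 50% inhibition of growth. TGI is the concentration that stops growth completely.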 Where a SMILES comes first, the peptide text is derived from it.

Assays:
Assay in all cases: NCI-60 cell line screen, 48 h
SN12C renal = tested on: SN12C renal
PC-3 prostate = tested on: PC-3 prostate
HL-60(TB) leukemia = tested on: HL-60(TB) leukemia
SK-MEL-28 melanoma = tested on: SK-MEL-28 melanoma
MDA-MB-435 = tested on: MDA-MB-435
COLO 205 colon = tested on: COLO 205 colon
OVCAR-5 ovarian = tested on: OVCAR-5 ovarian
CCRF-CEM leukemia = tested on: CCRF-CEM leukemia
SNB-75 CNS = tested on: SNB-75 CNS
SF-539 CNS = tested on: SF-539 CNS

| SMILES | GI50 (SN12C renal) [µM] | TGI (SN12C renal) [µM] | GI50 (PC-3 prostate) [µM] | TGI (PC-3 prostate) [µM] | GI50 (HL-60(TB) leukemia) [µM] | TGI (HL-60(TB) leukemia) [µM] | GI50 (SK-MEL-28 melanoma) [µM] | TGI (SK-MEL-28 melanoma) [µM] | GI50 (MDA-MB-435) [µM] | TGI (MDA-MB-435) [µM] | GI50 (COLO 205 colon) [µM] | TGI (COLO 205 colon) [µM] | GI50 (OVCAR-5 ovarian) [µM] | TGI (OVCAR-5 ovarian) [µM] | GI50 (CCRF-CEM leukemia) [µM] | TGI (CCRF-CEM leukemia) [µM] | GI50 (SNB-75 CNS) [µM] | TGI (SNB-75 CNS) [µM] | GI50 (SF-539 CNS) [µM] | TGI (SF-539 CNS) [µM] |
| --- | --- | --- | --- | --- | --- | --- | --- | --- | --- | --- | --- | --- | --- | --- | --- | --- | --- | --- | --- | --- |
| CN[C@]12CC3(C=CC(=O)C=C3)O[C@@]1(Cc1ccc(OC)cc1)N(C)C(=O)N2 | 1.7 | 7.13 | 0.695 | 4.31 | 1.84 | 6.49 | 2.53 | 6.75 | 2.57 | 8.64 | 2.53 | 6.66 | 2.21 | 5.59 | 1.8 | 3.72 | 10.4 | 23.3 | 1.9 | 3.97 |
| CCN(CC)CCOc1ccc(/C(=C(\C)Cc2ccc(OC)cc2)c2ccc(OC(=O)NCc3ccccc3)cc2)cc1 | 1.73 | 3.21 | 1.94 | 3.88 | 1.3 | 2.97 | 1.82 | 3.44 | 1.86 | 3.97 | 1.86 | 3.76 | 3.63 | 14.6 | 2.34 | 6.45 | 2.42 | 8.48 | 1.75 | 3.19 |
| CC(C)CC(NC(=O)C(CC(C)C)NC(=O)C(Cc1cnc[nH]1)NC(=O)C(C)NC(=O)C(NC(=O)C(C)NC(=O)C(Cc1c[nH]c2ccccc12)NC(=O)C(CCC(=O)O)NC(=O)C(N)Cc1ccccc1)C(C)C)C(N)=O (stereo unspecified) (H-FEWAVAHLL-NH2; configuration not given here) | > 100 | > 100 | – | > 12.5 | > 100 | > 100 | – | > 100 | – | > 12.5 | > 100 | > 100 | – | > 12.5 | > 100 | > 100 | – | > 100 | > 100 | > 100 |
| COc1ccc(/C(C)=C(\c2ccc(Cl)cc2)c2ccc(OCCN3CCCC3)cc2)cc1F | 3.55 | 7.12 | 3.04 | 6.71 | 3.54 | 7.89 | 3.13 | 6.27 | 1.48 | 4.65 | 2.16 | 7.49 | 3.15 | 6.37 | 4.24 | 10.7 | 4.42 | 8.22 | 2.74 | 5.75 |
| C/C(CC(=O)NNc1ccc([N+](=O)[O-])cc1)=N\Nc1ccc([N+](=O)[O-])cc1 | 17.8 | > 100 | 4.26 | > 100 | 2.48 | > 100 | 31.5 | > 100 | 4.56 | > 100 | 3.8 | > 100 | 99.4 | > 100 | 4.76 | > 100 | 22.1 | 93.5 | 5.97 | > 100 |
| O=C(O)C1NCCc2c1[nH]c1ccccc21 (stereo unspecified) | > 100 | > 100 | – | > 10 | > 100 | > 100 | > 100 | > 100 | – | > 10 | > 100 | > 100 | – | > 100 | > 100 | > 100 | > 100 | > 100 | > 100 | > 100 |
| COc1ccc(-c2nn(-c3cccc(NC(=O)Nc4ccc(Cl)c(C(F)(F)F)c4)c3)cc2-c2ccncc2)cc1Cl | 2.99 | > 100 | 1.32 | 6.85 | – | – | 3.08 | 13.3 | 2.16 | 5.92 | 2.01 | 4.2 | 4.36 | 30.8 | 1.9 | 6.4 | 1.91 | 9.56 | 2.04 | 5.11 |
| O=C(Nc1nccs1)c1cc2c(cc1Cl)Sc1nccn1S2(=O)=O | 16.8 | 32.6 | 16.8 | 33.4 | 13.6 | 31.2 | 20 | 37.6 | – | 31.3 | – | 30.7 | 21.7 | 46 | 5.05 | 24.8 | 18.8 | 35.4 | 19.4 | 37.5 |
| ClCc1ccc(-c2ccc(Cn3cnc4c(Cl)nc(Cl)nc43)cc2)cc1 | 2.72 | 8.93 | 2.21 | 5.28 | 3.25 | > 100 | 1.65 | 3.1 | 2.74 | 9.37 | 2.72 | 8.53 | 17.8 | 32.4 | 2.36 | 5.9 | 2.63 | 7.81 | 2.14 | 4.99 |
| C=C1C(=O)O[C@H]2[C@H]1CC/C(Cn1cc(Cn3ccc4ccccc43)nn1)=C\CC[C@@]1(C)O[C@@H]21 | 1.65 | 3.46 | 1.47 | 2.98 | 1.2 | 3.79 | 1.67 | 3.25 | 1.7 | 3.39 | 1.71 | 3.41 | 1.59 | 3.21 | 0.298 | 1.73 | 2.61 | 15.6 | 1.86 | 3.35 |
| Cc1cc(C)c(O)c(Cc2cccc(Cc3cc(C)cc(C)c3O)c2O)c1 | – | > 100 | – | > 100 | – | – | – | > 100 | – | > 100 | – | > 100 | – | > 100 | – | > 100 | – | > 100 | – | > 100 |
| O=C1N=C(c2ccccc2)OC1C(=O)c1ccccc1 (stereo unspecified) | – | > 100 | – | > 100 | – | > 100 | – | > 100 | – | > 100 | – | > 100 | – | > 100 | – | > 100 | – | > 100 | – | – |
| Oc1ccc(CNCc2ccccc2)c2cccnc12 | – | – | – | 59.8 | – | 1.05 | – | > 100 | – | > 100 | – | > 72 | – | 99.2 | – | 0.343 | – | 0.229 | – | – |
| Cc1cc(O)c(C(c2cccnc2)c2c(O)cc(C)[nH]c2=O)c(=O)[nH]1 | – | > 100 | – | > 100 | – | > 100 | – | > 100 | – | > 100 | – | > 100 | – | > 100 | – | > 100 | – | – | – | – |
| Nc1ncnc2c1nc(-c1ccccc1)n2C1OC(CO)C(O)C1O (stereo unspecified) | – | > 100 | – | > 100 | – | > 100 | – | > 100 | – | > 100 | – | > 100 | – | > 100 | – | – | – | > 100 | – | > 100 |
